Test results reported in publication PMC4494705 (PLoS ONE, 2015).
“Also recorded” adds a separate entry of the source. Where two headings read alike, the source gives them in different places.

Assays:
[1] = Single time point (1 h) brain concentrations after i.n. administration in rats; format: in vivo; conditions: rat, 30 mg/kg i.n., 1 h post dose; for concentration at 1 h: male, Wistar, other: intranasal (i.n.)
GCP-II [2] = conditions: GCP-II inhibition, cited from earlier work
[3] = non-human primates; halted development; no reference given; cited from earlier work
[4] = Pharmacokinetics of 2-PMPA after i.p. administration in rats; format: in vivo; conditions: rat, 30 mg/kg i.p.
Description: For i.p. studies 2-PMPA was administered as a single i.p. dose. All dosing solutions were prepared on the day of the experiment in 50 mM HEPES buffered saline, and pH adjusted to 7.4 before injection. At various time points following drug administration (0.16, .5, 1, 3, 5 h) post dose, animals (n = 3 per time point, except 3 h n = 2 animals) were euthanized with CO2, and blood samples were collected in heparinized microtubes by cardiac puncture and tissues (olfactory bulb, frontal cortex, and cerebellum) were dissected and immediately flash frozen (-80°C). Plasma was prepared by centrifugation immediately after collection of blood samples. All samples were stored in -80°C until bioanalysis. […]
The maximum plasma concentration (Cmax) and time to Cmax (Tmax) were the observed values. The area under the plasma concentration time curve (AUC) value was calculated to the last quantifiable sample (AUClast) by use of the log-linear trapezoidal rule. The brain to plasma partition coefficients were calculated as a ratio of their AUCs (AUC0-t,brain/AUC0-t,plasma). The elimination half-life (t1/2) was determined by dividing 0.693 by λ z.

[5] = Pharmacokinetics of 2-PMPA after i.n. administration in rats; format: in vivo; conditions: rat
GCP-II [6] = target: T1, GCP-II (Rattus norvegicus, UniProt P70627); test: Ex vivo GCP-II enzymatic (NAAG hydrolyzing) activity in brain tissue after i.n. administration; conditions: for inhibition at 30 mg/kg: inhaled or nasal, 30 mg/kg i.n., 1 h post dose, relative to untreated control rats
T1 construct: from tissue; host or cells: rat brain (olfactory bulb, cortex, cerebellum), sonicated homogenate supernatant
T1 sequence (P70627 whole entry): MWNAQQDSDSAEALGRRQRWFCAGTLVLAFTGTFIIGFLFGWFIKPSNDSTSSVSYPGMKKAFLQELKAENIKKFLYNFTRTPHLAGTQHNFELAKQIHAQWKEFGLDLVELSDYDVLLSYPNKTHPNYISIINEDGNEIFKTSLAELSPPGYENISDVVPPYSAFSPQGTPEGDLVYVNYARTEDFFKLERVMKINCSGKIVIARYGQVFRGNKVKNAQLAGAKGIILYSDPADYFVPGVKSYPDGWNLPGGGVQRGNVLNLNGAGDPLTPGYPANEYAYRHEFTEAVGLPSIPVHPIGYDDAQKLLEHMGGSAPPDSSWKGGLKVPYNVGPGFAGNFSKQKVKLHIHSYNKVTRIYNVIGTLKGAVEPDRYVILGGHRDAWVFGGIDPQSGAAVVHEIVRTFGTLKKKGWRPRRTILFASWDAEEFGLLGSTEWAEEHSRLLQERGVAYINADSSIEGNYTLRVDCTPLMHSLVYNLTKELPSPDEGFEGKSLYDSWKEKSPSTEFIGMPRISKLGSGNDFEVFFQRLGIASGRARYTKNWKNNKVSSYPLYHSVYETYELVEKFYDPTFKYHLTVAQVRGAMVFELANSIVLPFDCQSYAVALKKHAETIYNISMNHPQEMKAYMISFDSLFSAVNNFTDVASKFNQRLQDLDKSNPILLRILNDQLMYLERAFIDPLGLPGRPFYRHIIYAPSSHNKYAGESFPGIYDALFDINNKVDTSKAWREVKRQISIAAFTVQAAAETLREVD
Description: One half of the brain tissues collected following i.n. administration (1h post dose) was used to determine GCP-II NAAG hydrolyzing activity. In brief, tissues were weighed and immersed in 0.5 mL of ice-cold 50 mM Tris Buffer (pH 7.7 at RT). Each tissue was sonicated for 30–60 seconds using an ultrasonic cell disrupter. After a 2 minute spin at 13,000 g, supernatants were analyzed for protein content and NAAG-hydrolyzing activity measurements were performed as previously described.

[7] = Plasma and CSF exposure after i.n. administration in non-human primate; format: in vivo; conditions: male cynomolgus monkey, 30 min post dose
Description: Total dose delivered was 100 mg.
Standard curves were generated in blank artificial CSF. […] Samples were analysed on agilent QTOF mass spectrometer by LC/MS.

[8] = following systemic administration; ref [45]; cited from earlier work
[9] = cerebellum, read-out: Mean concentration in cerebellum
[10] = frontal cortex, read-out: Mean concentration in cortex
[11] = olfactory bulb, read-out: Mean concentration in olfactory bulb
[12] = printed in Fig 1, no method or reference given in this paper, read-out: Potency (IC50)

## O=C(O)CCC(CCCS)C(=O)O (stereo not drawn) [2-MPPA, 2-(3-mercaptopropyl)pentane-dioic acid]
[1]; [9]
  concentration at 1 h: 210 ng/g
[1]; [10]
  concentration at 1 h: 260 ng/g
[1]; [11]
  concentration at 1 h: 4460 ng/g
GCP-II [2]; [12]
  IC50: 90 nM
[3]
  Toxicity observed in primate studies: membranoproliferative glomerular nephritis; also recorded: immunological toxicities

## O=C(O)CCC(CP(=O)(O)O)C(=O)O (stereo not drawn) [2-PMPA, 2-(phosphonomethyl)-pentanedioic acid]
[1]
  Mean concentration in cerebellum: 2.13 µg/g
  Mean concentration in cortex: 10.3 µg/g
  Mean concentration in olfactory bulb: 31.2 µg/g
[4]; male, Wistar, cerebellum, ip, read-out: Brain tissue to plasma ratio (AUC0-t,brain/AUC0-t,plasma), cerebellum
  Kp: […]
[4]; male, Wistar, frontal cortex, ip, read-out: Brain tissue to plasma ratio (AUC0-t,brain/AUC0-t,plasma), cortex
  Kp: […]
[4]; male, Wistar, ip, plasma, read-out: Elimination t1/2 (converted)
  half-life: 59.4 min
[4]; male, Wistar, ip, plasma, read-out: Peak plasma concentration (Cmax)
  Cmax: 49500 ng/mL
[4]; male, Wistar, plasma, ip, read-out: AUC0-t plasma
  AUC(0-t): […]
[4]; male, Wistar, plasma, ip, read-out: Apparent clearance
  CL/F: 9.71 mL/min/kg
[4]
  AUC0-t cerebellum: 0.80 µg·h/g
  AUC0-t olfactory bulb: 1.15 µg·h/g
  Apparent volume of distribution: 0.82 L/kg
[5]; male, Wistar, other: intranasal (i.n.), 30 mg/kg i.n., plasma
  Cmax: 24700 ng/mL
[5]; male, Wistar, plasma, other: intranasal (i.n.), 30 mg/kg i.n., read-out: AUC0-t plasma
  AUC(0-t): 52300 ng·h/mL
[5]; 30 mg/kg i.n.
  AUC0-t cerebellum: 5.27 µg·h/g
  AUC0-t cortex: 37.7 µg·h/g
  AUC0-t olfactory bulb: 78.1 µg·h/g
  Brain tissue to plasma ratio (AUC0-t,brain/AUC0-t,plasma), cortex: 0.71
  Brain tissue to plasma ratio (AUC0-t,brain/AUC0-t,plasma), olfactory bulb: 1.49
[5]; i.n., pooled plasma and brain data of i.p. and i.n. routes
  Share of 2-PMPA reaching the brain accounted from the plasma: […]
GCP-II [6]; i.n. administration
  Inhibition of brain GCP-II enzymatic activity ex-vivo (in words): complete inhibition
GCP-II [6]; read-out: Inhibition of GCP-II activity, cerebellum
  inhibition at 30 mg/kg: 70%
GCP-II [6]; read-out: Inhibition of GCP-II activity, cortex
  inhibition at 30 mg/kg: […]
GCP-II [6]; read-out: Inhibition of GCP-II activity, olfactory bulb
  inhibition at 30 mg/kg: […]
[7]; i.n.
  CSF concentration versus the IC50: […]
[7]; total dose 100 mg i.n., below the limit of quantitation
  Plasma level: […]
GCP-II [2]; ref [4],[13], read-out: IC50
  IC50: […]
[8]
  Brain to plasma ratio: […]

## O=C(O)CC[C@H](NC(=O)N[C@@H](CS)C(=O)O)C(=O)O [DCMC, N-[N-[(S)-1,3-dicarboxypropyl]carbamoyl]-L-cysteine, reference compound]
[1]; [9]
  concentration at 1 h: 200 ng/g
[1]; [10]
  concentration at 1 h: 2030 ng/g
[1]; [11]
  concentration at 1 h: 2120 ng/g
GCP-II [2]; [12]
  IC50: 3.1 nM
